The source of these data is patent US8008291B2 (Mimetica Pty Ltd, priority 2008, dated 2011).

Where only a bound is given, the exact number is not on record here.

T1 sequence (A0A5F8AEA9 1-325): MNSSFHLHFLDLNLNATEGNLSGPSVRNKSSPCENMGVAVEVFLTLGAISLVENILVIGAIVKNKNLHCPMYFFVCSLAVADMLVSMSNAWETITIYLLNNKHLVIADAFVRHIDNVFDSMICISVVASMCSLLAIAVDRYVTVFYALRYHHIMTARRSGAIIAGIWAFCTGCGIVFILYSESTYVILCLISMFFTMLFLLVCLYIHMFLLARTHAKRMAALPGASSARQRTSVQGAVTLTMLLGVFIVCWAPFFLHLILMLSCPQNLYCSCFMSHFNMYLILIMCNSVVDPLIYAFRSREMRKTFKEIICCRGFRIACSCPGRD

One assay addresses T1, rhesus monkey MC5R (whole cells) (Macaca mulatta, UniProt A0A5F8AEA9).
T1 construct: expressed in transfected cells
Briefly: MC5R radioligand binding, rhesus monkey MC5R whole cells.
Details: not given
For `O=C(NC[C@@H]1CCN(CC(c2ccccc2)c2ccccc2)C(=O)[C@H](CCCN2CCCCC2)N1)c1ccc2ccccc2c1` [Compound 64, N-(((3S,5S)-1-(2,2-diphenylethyl)-2-oxo-3-(3-(piperidin-1-yl)propyl)-1,4-diazepan-5-yl)methyl)-2-naphthamide], the IC50 is above 5000 nM.

In a further assay the target is T2, rhesus monkey MC5R (membranes) (Macaca mulatta, UniProt A0A5F8AEA9).
T2 construct: expressed in transfected cells
T2 sequence (A0A5F8AEA9 1-325): as above
Briefly: MC5R radioligand binding, rhesus monkey MC5R membranes.
Details: not given
Consider `O=C(NC[C@@H]1CCN(CC(c2ccccc2)c2ccccc2)C(=O)[C@H](CCCN2CCCCC2)N1)c1ccc2ccccc2c1` [Compound 64, N-(((3S,5S)-1-(2,2-diphenylethyl)-2-oxo-3-(3-(piperidin-1-yl)propyl)-1,4-diazepan-5-yl)methyl)-2-naphthamide], for which the IC50 amounted to 7310 nM.

For the next assay, the target named is T3, human MC5R (hMC5R) (Homo sapiens, UniProt P33032).
T3 construct: purchased Perkin Elmer RBXMC5M400UA
T3 sequence (P33032 whole entry): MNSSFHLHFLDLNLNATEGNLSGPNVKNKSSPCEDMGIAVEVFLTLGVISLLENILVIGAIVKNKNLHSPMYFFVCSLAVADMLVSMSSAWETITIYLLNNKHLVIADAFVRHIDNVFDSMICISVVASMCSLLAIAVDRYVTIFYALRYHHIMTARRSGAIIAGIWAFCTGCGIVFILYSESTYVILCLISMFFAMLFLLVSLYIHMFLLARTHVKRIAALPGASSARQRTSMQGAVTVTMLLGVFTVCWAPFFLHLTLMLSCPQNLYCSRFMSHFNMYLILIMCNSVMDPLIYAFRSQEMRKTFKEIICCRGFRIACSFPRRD
Briefly: Human MC5R radioligand binding assay (membranes, [125I] NDP-MSH displacement). As to conditions: hMC5R binding; tested as trifluoroacetate or hydrochloride salts, or free bases; read-out: MC5R radioligand IC50. The method in brief:
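Displacement of [125I]NDP-MSH (radioiodinated in house, HPLC-purified) from hMC5R membranes by test compound measured after 1 hr incubation at 37° C.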
For the compound `CC[C@H](CN1CC[C@@H](CNC(=O)c2ccc3cc(Cl)ccc3c2)N[C@@H](CCN2CCCCC2)C1=O)c1ccsc1` [Compound 511, 6-chloro-N-(((3S,5S)-2-oxo-3-(2-(piperidin-1-yl)ethyl)-1-((S)-2-(thiophen-3-yl)butyl)-1,4-diazepan-5-yl)methyl)-2-naphthamide], the IC50 is below 10 nM.
As for `CCC(C)(CC)CN1CC[C@@H](CNC(=O)c2ccc3cc(Cl)ccc3c2)N[C@@H](CCN)C1=O` [Compound 512, N-(((3S,5S)-3-(2-aminoethyl)-1-(2-ethyl-2-methylbutyl)-2-oxo-1,4-diazepan-5-yl)methyl)-6-chloro-2-naphthamide], the IC50 is below 1000 nM.
The same measure, in the same setting: as for `CCC(C)(CC)CN1CC[C@@H](CNC(=O)c2ccc3cc(Cl)ccc3c2)N[C@@H](CCN2CCCCC2)C1=O` [Compound 513, 6-chloro-N-(((3S,5S)-1-(2-ethyl-2-methylbutyl)-2-oxo-3-(2-(piperidin-1-yl)-ethyl)-1,4-diazepan-5-yl)methyl)-2-naphthamide], the figure is below 100 nM.
`O=C(NC[C@@H]1CCN(CC(c2ccccc2)c2ccccc2)C(=O)[C@H](CCN2CCOCC2)N1)c1ccc2cc(Cl)ccc2c1` [Compound 514, 6-chloro-N-(((3S,5S)-1-(2,2-diphenylethyl)-3-(2-morpholinoethyl)-2-oxo-1,4-diazepan-5-yl)methyl)-2-naphthamide]: the IC50 is below 100 nM.
Same read-out and setting: as for `CC[C@H](CN1CC[C@@H](CNC(=O)c2ccc3cc(Cl)ccc3c2)N[C@@H](CCN2CCOCC2)C1=O)c1ccccc1` [Compound 515, 6-chloro-N-(((3S,5S)-3-(2-morpholinoethyl)-2-oxo-1-((S)-2-phenylbutyl)-1,4-diazepan-5-yl)methyl)-2-naphthamide], the figure is below 100 nM; as for `CC[C@H](CN1CC[C@@H](CNC(=O)NCc2ccc(Cl)cc2)N[C@@H](CCN2CCCCC2)C1=O)c1ccccc1` [Compound 518], below 1000 nM; as for `CC[C@H](CN1CC[C@@H](CN(Cc2ccc(Cl)c(Cl)c2)C(C)=O)N[C@@H](CCN2CCCCC2)C1=O)c1ccccc1` [Compound 519], below 10000 nM.
Still for that read-out and setting: the figure for `CCC(C)(CC)CN1CC[C@@H](CNC(=O)c2ccc(Cl)c(Cl)c2)N[C@@H](CCN)C1=O` [Compound 520, N-(((3S,5S)-3-(2-aminoethyl)-1-(2-ethyl-2-methylbutyl)-2-oxo-1,4-diazepan-5-yl)methyl)-3,4-dichlorobenzamide] is below 10000 nM; for `CCC(C)(CC)CN1CC[C@@H](CNC(=O)c2ccc(Cl)c(Cl)c2)N[C@@H](CCN2CCCCC2)C1=O` [Compound 521, 3,4-dichloro-N-(((3S,5S)-1-(2-ethyl-2-methylbutyl)-2-oxo-3-(2-(piperidin-1-yl)ethyl)-1,4-diazepan-5-yl)methyl)benzamide] it is below 100 nM.
On the same count and under the same terms, the figure for `O=C(NC[C@@H]1CCN(Cc2cc(Cl)cc(Cl)c2Cl)C(=O)[C@H](CCN2CCCCC2)N1)c1ccc2cc(Cl)ccc2c1` [Compound 522, 6-chloro-N-(((3S,5S)-2-oxo-3-(2-(piperidin-1-yl)ethyl)-1-(2,3,5-trichlorobenzyl)-1,4-diazepan-5-yl)methyl)-2-naphthamide] is below 100 nM.
As to `CC[C@H](CN1CC[C@@H](CNC(=O)c2ccc3cc(Cl)ccc3c2)N[C@@H](CCNS(=O)(=O)C(C)C)C1=O)c1ccccc1` [Compound 523, 6-chloro-N-(((3S,5S)-3-(2-(1-methylethylsulfonamido)ethyl)-2-oxo-1-((S)-2-phenylbutyl)-1,4-diazepan-5-yl)methyl)-2-naphthamide], the IC50 is below 100 nM.
On to `CCCCOC(=O)NCC[C@@H]1N[C@H](CNC(=O)c2ccc3cc(Cl)ccc3c2)CCN(C[C@@H](CC)c2ccccc2)C1=O` [Compound 524, butyl 2-((2S,7S)-7-((6-chloro-2-naphthamido)methyl)-3-oxo-4-((S)-2-phenylbutyl)-1,4-diazepan-2-yl)ethylcarbamate], for which the IC50 is below 1000 nM.
As to `CC[C@H](CN1CCC(CNC(=O)c2ccc3cc(Cl)ccc3c2)NC(C2CCN(C(C)C)CC2)C1=O)c1ccccc1` (stereo partly drawn) [Compound 525, (S)-6-chloro-N-((3-(1-isopropylpiperidin-4-yl)-2-oxo-1-(2-phenylbutyl)-1,4-diazepan-5-yl)methyl)-2-naphthamide], the IC50 is below 100 nM.
On the same count and under the same terms, as for `CC[C@@H](CN1CC[C@@H](CNC(=O)c2ccc3cc(Cl)ccc3c2)N[C@@H](CCN2CCCCC2)C1=O)c1ccccc1` [Compound 526, 6-chloro-N-(((3S,5S)-2-oxo-1-((R)-2-phenylbutyl)-3-(2-(piperidin-1-yl)ethyl)-1,4-diazepan-5-yl)methyl)-2-naphthamide], the figure is below 10 nM; as for `O=C(NC[C@@H]1CCN(Cc2cc(Cl)cc(Cl)c2)C(=O)[C@H](CCN2CCCCC2)N1)c1cc(-c2ccc(Cl)cc2)on1` [Compound 527, 5-(4-chlorophenyl)-N-(((3S,5S)-1-(3,5-dichlorobenzyl)-2-oxo-3-(2-(piperidin-1-yl)ethyl)-1,4-diazepan-5-yl)methyl)isoxazole-3-carboxamide], below 100 nM; as for `O=C(NC[C@@H]1CCN(Cc2cc(Cl)cc(Cl)c2)C(=O)[C@H](CCN2CCCCC2)N1)c1ccc(Cl)cc1Cl` [Compound 528, 2,4-dichloro-N-(((3S,5S)-1-(3,5-dichlorobenzyl)-2-oxo-3-(2-(piperidin-1-yl)ethyl)-1,4-diazepan-5-yl)methyl)benzamide], below 10 nM.
`COc1c(C(=O)NC[C@@H]2CCN(Cc3cc(Cl)cc(Cl)c3)C(=O)[C@H](CCN3CCCCC3)N2)ccc2ccccc12` [Compound 531, N-(((3S,5S)-1-(3,5-dichlorobenzyl)-2-oxo-3-(2-(piperidin-1-yl)ethyl)-1,4-diazepan-5-yl)methyl)-1-methoxy-2-naphthamide]: the IC50 was below 100 nM.
With `O=C(/C=C/c1ccc(OC(F)(F)F)cc1)NC[C@@H]1CCN(Cc2cc(Cl)cc(Cl)c2)C(=O)[C@H](CCN2CCCCC2)N1` [Compound 532, (E)-N-(((3S,5S)-1-(3,5-dichlorobenzyl)-2-oxo-3-(2-(piperidin-1-yl)ethyl)-1,4-diazepan-5-yl)methyl)-3-(4-(trifluoromethoxy)phenyl)acrylamide], the IC50 was below 10 nM.
Consider `CC[C@H](CN1CC[C@@H](CNC(=O)c2cc(-c3ccc(Cl)cc3)on2)N[C@@H](CCN2CCCCC2)C1=O)c1ccccc1` [Compound 533, 5-(4-chlorophenyl)-N-(((3S,5S)-2-oxo-1-((S)-2-phenylbutyl)-3-(2-(piperidin-1-yl)ethyl)-1,4-diazepan-5-yl)methyl)isoxazole-3-carboxamide], for which the IC50 was below 10 nM.
In the case of `CC[C@H](CN1CC[C@@H](CNC(=O)c2ccc(Cl)cc2Cl)N[C@@H](CCN2CCCCC2)C1=O)c1ccccc1` [Compound 534, 2,4-dichloro-N-(((3S,5S)-2-oxo-1-((S)-2-phenylbutyl)-3-(2-(piperidin-1-yl)ethyl)-1,4-diazepan-5-yl)methyl)benzamide], the IC50 is below 10 nM.
Still for that read-out and setting: the figure for `O=C1[C@H](CCN2CCCCC2)N[C@H](CN2C(=O)c3cc(Cl)c(Cl)cc3C2=O)CCN1Cc1cc(Cl)cc(Cl)c1` [Compound 535, 5,6-dichloro-2-(((3S,5S)-1-(3,5-dichlorobenzyl)-2-oxo-3-(2-(piperidin-1-yl)ethyl)-1,4-diazepan-5-yl)methyl)isoindoline-1,3-dione] is below 1000 nM; for `O=C(/C=C/c1ccc(OC(F)(F)F)c(F)c1)NC[C@@H]1CCN(Cc2cc(Cl)cc(Cl)c2)C(=O)[C@H](CCN2CCCCC2)N1` [Compound 536, (E)-N-(((3S,5S)-1-(3,5-dichlorobenzyl)-2-oxo-3-(2-(piperidin-1-yl)ethyl)-1,4-diazepan-5-yl)methyl)-3-(3-fluoro-4-(trifluoromethoxy)phenyl)acrylamide] it is below 100 nM.
For `CC[C@H](CN1CC[C@@H](CNC(=O)c2ccc3cc(OC)ccc3c2)N[C@@H](CCN2CCCCC2)C1=O)c1ccccc1` [Compound 537, 6-methoxy-N-(((3S,5S)-2-oxo-1-((S)-2-phenylbutyl)-3-(2-(piperidin-1-yl)ethyl)-1,4-diazepan-5-yl)methyl)-2-naphthamide], the IC50 is below 100 nM.
For the compound `CC[C@H](CN1CC[C@@H](CNC(=O)c2ccc3ccccc3c2OC)N[C@@H](CCN2CCCCC2)C1=O)c1ccccc1` [Compound 538, 1-methoxy-N-(((3S,5S)-2-oxo-1-((S)-2-phenylbutyl)-3-(2-(piperidin-1-yl)ethyl)-1,4-diazepan-5-yl)methyl)-2-naphthamide], the IC50 was below 100 nM.
Same read-out and setting: the figure for `CC[C@H](CN1CC[C@@H](CNC(=O)/C=C/c2ccc(OC(F)(F)F)c(F)c2)N[C@@H](CCN2CCCCC2)C1=O)c1ccccc1` [Compound 539, (E)-3-(3-fluoro-4-(trifluoromethoxy)phenyl)-N-(((3S,5S)-2-oxo-1-((S)-2-phenylbutyl)-3-(2-(piperidin-1-yl)ethyl)-1,4-diazepan-5-yl)methyl)acrylamide] is below 10 nM.
